This passage reports melting point, inhibition and IC50 results from patent US7186749B2, “Pyrrolo-naphthyl acids and methods for using them” (Wyeth, priority 2004, dated 2007).

Data set [1] deals with T1, recombinant human plasminogen activator inhibitor-1 (PAI-1) (Homo sapiens, UniProt P05121).
T1 construct: purchased Molecular Innovations, Royal Oak, Mich
Kind of data set: Primary screen for PAI-1 inhibition (chromogenic tPA activity, Spectrozyme-tPA). The format is biochemical. The settings on record: 140 nM PAI-1, 70 nM tPA, pH 6.6; for inhibition at 10 µM: test compound 10 μM; for inhibition at 25 µM: test compound 25 μM. The method, then: Test compounds are dissolved in DMSO at a final concentration of 10 mM, then diluted 100× in physiologic buffer. The inhibitory assay is initiated by the addition of the test compound (1–100 μM final concentration, maximun DMSO concentration of 0.2%) in a pH 6.6 buffer containing 140 nM recombinant human plasminogen activator inhibitor-1 (PAI-1; Molecular Innovations, Royal Oak, Mich.). Following a 1 hour incubation at room temperature, 70 nM of recombinant human tissue plasminogen activator (tPA) is added, and the combination of the test compound, PAI-1 and tPA is incubated for an additional 30 minutes. Following the second incubation, Spectrozyme-tPA (American Diagnostica, Greenwich, Conn.), a chromogenic substrate for tPA, is added and absorbance read at 405 nm at 0 and 60 minutes. Relative PAI-1 inhibition is equal to the residual tPA activity in the presence of the test compound and PAI-1. Control treatments include the complete inhibition of tPA by PAI-1 at the molar ratio employed (2:1), and the absence of any effect of the test compound on tPA alone.

For the next data set, the target named is human PAI-1 (Homo sapiens, UniProt P05121). Put plainly: Antibody assay for determining IC50 of inhibition of PAI-1 (active PAI-1 bound to tPA-coated plate). The format is binding. Particulars: pH 7.5, human PAI-1 50 ng/ml. The method, then:
This assay is based upon the non-SDS dissociable interaction between tPA and active PAI-1. Assay plates are initially coated with human tPA (10 μg/ml). Test compounds of the present invention are dissolved in DMSO at 10 mM, then diluted with physiologic buffer (pH 7.5) to a final concentration of 1–50 μM. Test compounds are incubated with human PAI-1 (50 ng/ml) for 15 minutes at room temperature. The tPA-coated plate is washed with a solution of 0.05% Tween 20 and 0.1% BSA, then the plate is blocked with a solution of 3% BSA. An aliquot of the pyrrolo-naphthyl/PAI-1 solution is then added to the tPA-coated plate, incubated at room temperature for 1 hour, and washed. Active PAI-1 bound to the plate is assessed by adding an aliquot of a 1:1000 dilution of the 33B8 monoclonal antibody against human PAI-1, and incubating the plate at room temperature for 1 hour (Molecular Innovations, Royal Oak, Mich.). The plate is again washed, and a solution of goat anti-mouse IgG-alkaline phosphatase conjugate is added at a 1:50,000 dilution in goat serum. The plate is incubated 30 minutes at room temperature, washed, and a solution of alkaline phosphatase substrate is added. The plate is incubated 45 minutes at room temperature, and color development is determined at OD405 nm. The quantitation of active PAI-1 bound to tPA at varying concentrations of the test compound is used to determine the IC50. Results are analyzed using a logarithmic best-fit equation. The assay sensitivity is 5 ng/ml of human PAI-1 as determined from a standard curve ranging from 0–100 ng/ml.

By melting point is commonly meant the temperature, or range, at which the solid turns liquid. As a reminder, the inhibition is the share of the control response that was lost under treatment. The IC50 is the concentration that gives 50% inhibition. Lower therefore signals inhibition by little substance.

T1 sequence (P05121 24-402): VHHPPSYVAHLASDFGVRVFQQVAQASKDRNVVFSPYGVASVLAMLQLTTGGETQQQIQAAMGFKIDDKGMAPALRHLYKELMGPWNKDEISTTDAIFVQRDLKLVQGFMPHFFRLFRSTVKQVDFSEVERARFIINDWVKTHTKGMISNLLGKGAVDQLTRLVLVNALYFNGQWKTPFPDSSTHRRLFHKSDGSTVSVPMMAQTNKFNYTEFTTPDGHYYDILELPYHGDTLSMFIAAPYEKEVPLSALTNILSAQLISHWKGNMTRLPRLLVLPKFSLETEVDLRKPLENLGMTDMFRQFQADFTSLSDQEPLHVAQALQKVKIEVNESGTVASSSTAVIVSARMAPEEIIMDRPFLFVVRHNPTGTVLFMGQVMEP
human PAI-1, sequence (P05121 24-402): as above

The compound `O=C(O)C(Cc1ccccc1)Oc1ccc2cc(-c3ccc(-c4ccccc4)[nH]3)ccc2c1` (stereo not drawn) [Example 1, 3-phenyl-2-{[6-(5-phenyl-1H-pyrrol-2-yl)-2-naphthyl]oxy}propanoic acid] had a melting point of 176 to 178 °C. In data set [1], the inhibition at 10 µM was found to be 12% and the inhibition at 25 µM amounted to 78%. In addition, at human PAI-1, the IC50 was determined as 44.4 µM.

`O=C(O)C(Cc1ccccc1)Oc1ccc2cc(-c3ccc(-c4ccccc4)n3Cc3ccccc3)ccc2c1` (stereo not drawn) [Example 2, 2-{[6-(1-benzyl-5-phenyl-1H-pyrrol-2-yl)-2-naphthyl]oxy}-3-phenylpropanoic acid] yielded a melting point of 70 to 80 °C. Further, in data set [1], the inhibition at 10 µM was determined as 37% and the inhibition at 25 µM worked out at 66%. On human PAI-1, the IC50 was 16.1 µM.

As for `c1ccc(-c2ccc(-c3ccc4cc(OCc5nnn[nH]5)ccc4c3)[nH]2)cc1` [Example 3, 5-({[6-(5-phenyl-1H-pyrrol-2-yl)-2-naphthyl]oxy}methyl)-1H-tetraazole], the melting point was 237 to 240 °C (dec.). In addition, in data set [1], the inhibition at 10 µM was determined as 15% and the inhibition at 25 µM turned out to be 52%. On human PAI-1, the IC50 came to 33 µM.

Take `c1ccc(Cn2c(-c3ccccc3)ccc2-c2ccc3cc(OCc4nnn[nH]4)ccc3c2)cc1` [Example 4, 5-({[6-(1-benzyl-5-phenyl-1H-pyrrol-2-yl)-2-naphthyl]oxy}methyl)-1H-tetraazole]: the melting point is 190 to 200 °C (dec.). Besides, in data set [1], the inhibition at 10 µM was 11% and the inhibition at 25 µM stood at 67%.

As to `Cn1c(-c2ccccc2)ccc1-c1ccc2cc(OCc3nnn[nH]3)ccc2c1` [Example 5, 5-({[6-(1-methyl-5-phenyl-1H-pyrrol-2-yl)-2-naphthyl]oxy}methyl)-1H-tetraazole], the melting point is 231 to 233 °C (dec.). Moreover, in data set [1], the inhibition at 10 µM was 15% and the inhibition at 25 µM was determined as 32%.

Turning to `O=C(O)COc1ccc2cc(-c3ccc(-c4ccccc4)n3Cc3ccccc3)ccc2c1` [Example 6, {[6-(1-benzyl-5-phenyl-1H-pyrrol-2-yl)-2-naphthyl]oxy}acetic acid], the melting point lay in the range of 171 to 172 °C. In addition, in data set [1], the inhibition at 10 µM was found to be 14% and the inhibition at 25 µM turned out to be 74%.

`Cn1c(-c2ccccc2)ccc1-c1ccc2cc(OC(Cc3ccccc3)C(=O)O)ccc2c1` (stereo not drawn) [Example 7, 2-{[6-(1-methyl-5-phenyl-1H-pyrrol-2-yl)-2-naphthyl]oxy}-3-phenylpropanoic acid] yielded a melting point of 171 to 173 °C. In addition, in data set [1], the inhibition at 10 µM is 30% and the inhibition at 25 µM was determined as 95%.

Turning to `O=C(O)C(Cc1ccccc1)Oc1ccc2cc(-c3ccc(-c4ccccc4)n3Cc3ccc(C(F)(F)F)cc3)ccc2c1` (stereo not drawn) [Example 8, 3-phenyl-2-[(6-{5-phenyl-1-[4-(trifluoromethyl)benzyl]-1H-pyrrol-2-yl}2-naphthyl)oxy]propanoic acid], the melting point was 153 to 155 °C. Besides, in data set [1], the inhibition at 10 µM came to 43% and the inhibition at 25 µM was found to be 62%.

With `FC(F)(F)c1ccc(Cn2c(-c3ccccc3)ccc2-c2ccc3cc(OCc4nnn[nH]4)ccc3c2)cc1` [Example 9, 5-{[(6-{5-Phenyl-1-[4-(trifluoromethyl)benzyl]-1H-pyrrol-2-yl}-2-naphthyl)oxy]methyl}-1H-tetraazole], the melting point is 173 to 175 °C. Moreover, in data set [1], the inhibition at 10 µM turned out to be 31% and the inhibition at 25 µM was determined as 49%.

Compound `O=C(O)COc1ccc2cc(-c3ccc(-c4ccccc4)n3Cc3ccc(C(F)(F)F)cc3)ccc2c1` [Example 10, [(6-{5-Phenyl-1-[4-(trifluoromethyl)benzyl]-1H-pyrrol-2-yl}-2-naphthyl)oxy]acetic acid] showed a melting point of 154 to 156 °C. In data set [1], the inhibition at 10 µM amounted to 29% and the inhibition at 25 µM was found to be 55%.

For `c1ccc(-c2ccc(-c3ccc4cc(OCc5nnn[nH]5)ccc4c3)n2-c2ccccc2)cc1` [Example 11, 5-({[6-(1,5-diphenyl-1H-pyrrol-2-yl)-2-naphthyl]oxy}methyl)-1H-tetraazole], the melting point was 269 to 270 °C (dec.). In data set [1], the inhibition at 10 µM was 30% and the inhibition at 25 µM came out at 68%.

As for `O=C(O)COc1ccc2cc(-c3ccc(-c4ccccc4)n3-c3ccccc3)ccc2c1` [Example 12, {[6-(1,5-diphenyl-1H-pyrrol-2-yl)-2-naphthyl]oxy}acetic acid], the melting point was 258 to 260 °C (dec.). In data set [1], the inhibition at 10 µM came out at 48% and the inhibition at 25 µM was found to be 58%.

As for `O=C(O)C(Cc1ccccc1)Oc1ccc2cc(-c3ccc(-c4ccccc4)n3-c3ccccc3)ccc2c1` (stereo not drawn) [Example 13, 2-{[6-(1,5-diphenyl-1H-pyrrol-2-yl)-2-naphthyl]oxy}-3-phenylpropanoic acid], the melting point is 194 to 196 °C (dec.). Moreover, in data set [1], the inhibition at 10 µM was 33% and the inhibition at 25 µM worked out at 60%.

With `O=C(O)c1ccc(COc2ccc3cc(-c4ccc(-c5ccccc5)n4Cc4ccc(C(F)(F)F)cc4)ccc3c2)cc1` [Example 14, 4-{[(6-{5-phenyl-1-[4-(trifluoromethyl)benzyl]-1H-pyrrol-2-yl}-2-naphthyl)oxy]methyl}benzoic acid], the melting point was 228 to 229 °C. In data set [1], the inhibition at 10 µM amounted to 23% and the inhibition at 25 µM stood at 31%.

With `O=C(O)c1ccc(COc2ccc3cc(-c4ccc(-c5ccccc5)n4-c4ccccc4)ccc3c2)cc1` [Example 15, 4-({[6-(1,5-diphenyl-1H-pyrrol-2-yl)-2-naphthyl]oxy}methyl)benzoic acid], the melting point lay within 309 to 310 °C. Besides, in data set [1], the inhibition at 10 µM stood at 30% and the inhibition at 25 µM stood at 68%.

For the compound `O=C(O)c1ccc(COc2ccc3cc(-c4ccc(-c5ccccc5)n4Cc4ccc(C(F)(F)F)cc4)ccc3c2)c(C(=O)O)c1` [Example 16, 4-{[(6-{5-phenyl-1-[4-(trifluoromethyl)benzyl]-1H-pyrrol-2-yl}-2-naphthyl)oxy]methyl}isophthalic acid], the melting point was in the range of 250 to 252 °C. Also, in data set [1], the inhibition at 10 µM stood at 40% and the inhibition at 25 µM was 63%.

`O=C(O)c1ccc(COc2ccc3cc(-c4ccc(-c5ccccc5)[nH]4)ccc3c2)c(C(=O)O)c1` [Example 17, 4-({[6-(5-phenyl-1H-pyrrol-2-yl)-2-naphthyl]oxy}methyl)isophthalic acid]: the melting point was 289 to 291 °C. Further, in data set [1], the inhibition at 10 µM worked out at 18% and the inhibition at 25 µM came to 44%.
